In US11174250B2, “Substituted carboxamides as inhibitors of WDR5 protein-protein binding” (PROPELLON THERAPEUTICS INC., priority 2016, dated 2021):
Read-outs that look alike come from different tables or passages of the source.

Columns and labels:
MLL1-WRAD2 complex = MLL1-WRAD2 complex (Homo sapiens (Human), UniProt P61964); experiment: MLL1-WRAD2 enzyme assay (in vitro methyl transferase assay); format: biochemical; conditions: MLL1-WRAD2 assay; read-out: In vitro MLL1 activity (IC50)
Procedure: Reaction was initiated with 1 μM 3H-SAM and incubated for 1 hour at 30° C. Reaction mixture was transferred to P81 filter-paper and washed with PBS before detection.

MV4-11 cells = experiment: Cell proliferation assay (ATPlite); format: cell-based; conditions: Homo sapiens, MV4-11, 120 h; MV-411 cells, five days; read-out: In vitro whole cell potency in MV-411 cells, (IC50)
Procedure: MV4-11 cells were seeded into a 96-well plate at 1,000 cells/well in 150 μl medium (Alpha-MEM containing 10% FBS, 100 μg/ml Normocin, and 50 μg/ml Gentamycin, Invitrogen). A HP D300 digital dispenser was used to dose cells with DMSO or test compounds across a 10-point range of concentrations (high dose of 10 μM), and cultures were grown in a humidified 5% CO2 incubator at 37° C. After five days, plates were removed from incubator and equilibrated to room temperature. An equal volume of ATPlite assay reagent was added to each well, and samples were processed according to manufacturer's instructions (Perkin Elmer). Luminescent signal was measured using an Envision plate reader equipped with a US-Luminescence detector.

[1] = tested on: H3K4 dimethylation (H3K4me2) in T24 cells; experiment: Detection of in-cell H3K4 dimethylation (AlphaLisa); format: cell-based; conditions: Homo sapiens, T-24, 120 h, five days
Procedure: T24 cells were seeded into a 96-well plate at 400 cells/well in 150 μl medium (McCoy 5A containing 10% FBS, 100 μg/ml Normocin, and 50 μg/ml Gentamycin, Invitrogen). A HP D300 digital dispenser was used to dose cells with DMSO or test compounds across a 10-point range of concentrations (high dose of 10 μM), and cultures were grown in a humidified 5% CO2 incubator at 37° C. After five days, plates were removed from incubator, media was aspirated, and the cells washed in PBS. Cell lysis, histone extraction, and detection of H3K4 dimethylation (H3K4me2) were performed using an AlphaLisa kit according to the manufacturer's instructions (Perkin Elmer). Signal was measured using an Envision plate reader.

WDR5 protein = WDR5 protein (Homo sapiens (Human), UniProt P61964); experiment: Surface Plasmon Resonance (SPR) assay; format: binding; conditions: SPR; for residence time: τ=1/koff, read-out: Residence Time (t, min)
[2] = Table 1, read-out: WDR5 binding affinity (KD)
[3] = Table 2, read-out: WDR5 binding affinity SPR (KD)

CN1CCN(c2ccc(-c3cc(CN4CCOCC4)ccc3F)cc2NC(=O)c2c[nH]c(=O)cc2C(F)(F)F)CC1 [Example 2, N-(2′-fluoro-4-(4-methylpiperazin-1-yl)-5′-(morpholinomethyl)-[1,1′-biphenyl]-3-yl)-6-oxo-4-(trifluoromethyl)-1,6-dihydropyridine-3-carboxamide]
IC50 (MLL1-WRAD2 complex): 939 nM
IC50 (MV4-11 cells): 634 nM
IC50 [1]: 952 nM

CN1CCN(c2ccc(-c3cc(CN4CCN(Cc5ccc(F)cc5)CC4)ccc3F)cc2NC(=O)c2c[nH]c(=O)cc2C(F)(F)F)CC1 [Example 68, N-(2′-fluoro-5′-((4-(4-fluorobenzyl)piperazin-1-yl)methyl)-4-(4-methylpiperazin-1-yl)-[,1′-biphenyl]-3-yl)-6-oxo-4-(trifluoromethyl)-1,6-dihydropyridine-3-carboxamide]
IC50 (MLL1-WRAD2 complex): 1890 nM
IC50 (MV4-11 cells): 1790 nM
Kd (WDR5 protein; [2]): 7.7 nM
Kd (WDR5 protein; [3]): 7.7 nM
residence time (WDR5 protein): 3.81 min

CN1CCN(c2ccc(-c3cc(CN4CC[C@@H](O)C4)ccc3F)cc2NC(=O)c2c[nH]c(=O)cc2C(F)(F)F)CC1 [Example 69, (R)—N-(2′-fluoro-5′-((3-hydroxypyrrolidin-1-yl)methyl)-4-(4-methylpiperazin-1-yl)-[1,1′-biphenyl]-3-yl)-6-oxo-4-(trifluoromethyl)-1,6-dihydropyridine-3-carboxamide]
IC50 (MLL1-WRAD2 complex): 2890 nM
IC50 (MV4-11 cells): > 10000 nM
Kd (WDR5 protein; [2]): 5.4 nM
Kd (WDR5 protein; [3]): 5.4 nM
residence time (WDR5 protein): 2.36 min

CN1CCN(c2ccc(-c3cc(CN4CCC(N5CCOCC5)CC4)ccc3F)cc2NC(=O)c2c[nH]c(=O)cc2C(F)(F)F)CC1 [Example 70, N-(2′-fluoro-4-(4-methylpiperazin-1-yl)-5′-((4-morpholinopiperidin-1-yl)methyl)-[1,1′-biphenyl]-3-yl)-6-oxo-4-(trifluoromethyl)-1,6-dihydropyridine-3-carboxamide]
IC50 (MLL1-WRAD2 complex): 1110 nM
IC50 (MV4-11 cells): 1140 nM
Kd (WDR5 protein; [2]): 4.4 nM
Kd (WDR5 protein; [3]): 4.4 nM
residence time (WDR5 protein): 5.8 min

CN1CCN(c2ccc(-c3cc(CN4CC[C@@H](N(C)C)C4)ccc3F)cc2NC(=O)c2c[nH]c(=O)cc2C(F)(F)F)CC1 [Example 71, (R)—N-(5′-((3-(dimethylamino)pyrrolidin-1-yl)methyl)-2′-fluoro-4-(4-methylpiperazin-1-yl)-[1,1′-biphenyl]-3-yl)-6-oxo-4-(trifluoromethyl)-1,6-dihydropyridine-3-carboxamide]
IC50 (MLL1-WRAD2 complex): 2070 nM
IC50 (MV4-11 cells): 2710 nM
Kd (WDR5 protein; [2]): 4.8 nM
Kd (WDR5 protein; [3]): 4.8 nM
residence time (WDR5 protein): 4.29 min

CN1CCN(c2ccc(-c3cc(CN4CCNCC4)ccc3F)cc2NC(=O)c2c[nH]c(=O)cc2C(F)(F)F)CC1 [Example 72, N-(2′-fluoro-4-(4-methylpiperazin-1-yl)-5′-(piperazin-1-ylmethyl)-[1,1′-biphenyl]-3-yl)-6-oxo-4-(trifluoromethyl)-1,6-dihydropyridine-3-carboxamide]
IC50 (MLL1-WRAD2 complex): 5930 nM
IC50 (MV4-11 cells): > 10000 nM
Kd (WDR5 protein; [2]): 5.1 nM
Kd (WDR5 protein; [3]): 5.1 nM
residence time (WDR5 protein): 1.16 min

CN1CCN(c2ccc(-c3cc(CN4CCC(F)CC4)ccc3F)cc2NC(=O)c2c[nH]c(=O)cc2C(F)(F)F)CC1 [Example 73, N-(2′-fluoro-5′-((4-fluoropiperidin-1-yl)methyl)-4-(4-methylpiperazin-1-yl)-[1,1′-biphenyl]-3-yl)-6-oxo-4-(trifluoromethyl)-1,6-dihydropyridine-3-carboxamide]
IC50 (MLL1-WRAD2 complex): 592 nM
IC50 (MV4-11 cells): 502 nM
Kd (WDR5 protein; [2]): 4.2 nM
Kd (WDR5 protein; [3]): 4.2 nM
residence time (WDR5 protein): 5.44 min

CN1CCN(c2ccc(-c3cc(CN4C5COCC4C5)ccc3F)cc2NC(=O)c2c[nH]c(=O)cc2C(F)(F)F)CC1 [Example 74, N-(5′-(3-oxa-6-azabicyclo[3.1.1]heptan-6-ylmethyl)-2′-fluoro-4-(4-methylpiperazin-1-yl)-[1,1′-biphenyl]-3-yl)-6-oxo-4-(trifluoromethyl)-1,6-dihydropyridine-3-carboxamide]
IC50 (MLL1-WRAD2 complex): 1750 nM
IC50 (MV4-11 cells): 5430 nM
Kd (WDR5 protein; [2]): 4.8 nM
Kd (WDR5 protein; [3]): 4.8 nM

CN1CCN(c2ccc(-c3cc(CN4CC[C@@H](S(C)(=O)=O)C4)ccc3F)cc2NC(=O)c2c[nH]c(=O)cc2C(F)(F)F)CC1 [Example 75, (R)—N-(2′-fluoro-4-(4-methylpiperazin-1-yl)-5′-((3-(methylsulfonyl)pyrrolidin-1-yl)methyl)-[1,1′-biphenyl]-3-yl)-6-oxo-4-(trifluoromethyl)-1,6-dihydropyridine-3-carboxamide]
IC50 (MLL1-WRAD2 complex): 2090 nM
IC50 (MV4-11 cells): 1220 nM
Kd (WDR5 protein; [2]): 5.9 nM
Kd (WDR5 protein; [3]): 5.9 nM
residence time (WDR5 protein): 5.13 min

CN1CCN(c2ccc(-c3cc(CN(C)[C@H]4CCOC4)ccc3F)cc2NC(=O)c2c[nH]c(=O)cc2C(F)(F)F)CC1 [Example 76, (S)—N-(2′-fluoro-5′-((methyl(tetrahydrofuran-3-yl)amino)methyl)-4-(4-methylpiperazin-1-yl)-[1,1′-biphenyl]-3-yl)-6-oxo-4-(trifluoromethyl)-1,6-dihydropyridine-3-carboxamide]
IC50 (MLL1-WRAD2 complex): 1900 nM
IC50 (MV4-11 cells): 787 nM
Kd (WDR5 protein; [2]): 5.5 nM
Kd (WDR5 protein; [3]): 5.5 nM
residence time (WDR5 protein): 3.81 min

CN1CCN(c2ccc(-c3cc(CN4CCOC(C)(C)C4)ccc3F)cc2NC(=O)c2c[nH]c(=O)cc2C(F)(F)F)CC1 [Example 77, N-(5′-((2,2-dimethylmorpholino)methyl)-2′-fluoro-4-(4-methylpiperazin-1-yl)-[1,1′-biphenyl]-3-yl)-6-oxo-4-(trifluoromethyl)-1,6-dihydropyridine-3-carboxamide]
IC50 (MLL1-WRAD2 complex): 907 nM
IC50 (MV4-11 cells): 1280 nM
Kd (WDR5 protein; [2]): 4.5 nM
Kd (WDR5 protein; [3]): 4.5 nM
residence time (WDR5 protein): 5.41 min

C[C@@H]1CN(c2ccc(-c3cc(C(=O)Nc4ccccc4)ccc3F)cc2NC(=O)c2c[nH]c(=O)cc2C(F)(F)F)C[C@H](C)N1C [Example 80, N-(2′-fluoro-5′-(phenylcarbamoyl)-4-((3S,5R)-3,4,5-trimethylpiperazin-1-yl)-[1,1′-biphenyl]-3-yl)-6-oxo-4-(trifluoromethyl)-1,6-dihydropyridine-3-carboxamide]
IC50 (MLL1-WRAD2 complex): 3990 nM
IC50 (MV4-11 cells): 2180 nM
Kd (WDR5 protein; [2]): 4 nM
Kd (WDR5 protein; [3]): 14 nM
residence time (WDR5 protein): 2.18 min

CC1CN(c2ccc(-c3cc(C(=O)NC4CCCCC4)ccc3F)cc2NC(=O)c2c[nH]c(=O)cc2C(F)(F)F)CCN1C (stereo not drawn) [Example 81, N-(5′-(cyclohexylcarbamoyl)-4-(3,4-dimethylpiperazin-1-yl)-2′-fluoro-[1,1′-biphenyl]-3-yl)-6-oxo-4-(trifluoromethyl)-1,6-dihydropyridine-3-carboxamide]
IC50 (MLL1-WRAD2 complex): > 30000 nM
IC50 (MV4-11 cells): > 10000 nM
Kd (WDR5 protein; [2]): 6.3 nM
Kd (WDR5 protein; [3]): 17.5 nM
residence time (WDR5 protein): 0.78 min

C[C@@H]1CN(c2ccc(-c3ccc(OCC4CC4)nc3F)cc2NC(=O)c2c[nH]c(=O)cc2C(F)(F)F)C[C@H](C)N1C [Example 82, N-(5-(6-(cyclopropylmethoxy)-2-fluoropyridin-3-yl)-2-((3R,5S)-3,4,5-trimethylpiperazin-1-yl)phenyl)-6-oxo-4-(trifluoromethyl)-1,6-dihydropyridine-3-carboxamide]
IC50 (MLL1-WRAD2 complex): 549 nM
IC50 (MV4-11 cells): 536 nM
Kd (WDR5 protein; [2]): 0.7 nM
Kd (WDR5 protein; [3]): 0.7 nM
residence time (WDR5 protein): 23 min

C[C@@H]1CN(c2ccc(-c3nc(N4CCOCC4)ncc3F)cc2NC(=O)c2c[nH]c(=O)cc2C(F)(F)F)C[C@H](C)N1C [Example 125, N-(5-(5-fluoro-2-morpholinopyrimidin-4-yl)-2-((3S,5R)-3,4,5-trimethylpiperazin-1-yl)phenyl)-6-oxo-4-(trifluoromethyl)-1,6-dihydropyridine-3-carboxamide]
IC50 (MLL1-WRAD2 complex): 49 nM
IC50 (MV4-11 cells): 87 nM
Kd (WDR5 protein; [2]): 3 nM
Kd (WDR5 protein; [3]): 3.1 nM
residence time (WDR5 protein): 11.6 min
